The EC50 is the midpoint of the concentration-response curve. In general, AC50 refers to the concentration giving half of the maximal activity seen.

The source of these data is ChEMBL document CHEMBL1201862, “PubChem BioAssay data set” (2004).

Activity calls are given as the source filed them. A value given as a limit tells only on which side of the number the result lay.

In assay [1] the test system is BJ. Put plainly: cells. Format: functional, cell-based. The conditions noted are these: Homo sapiens.
Assay [2] can be described thus: DRD fibroblast viability loss – cell-based, non-viral oncogenic, luminescence, dose response (AID 1934). The assay is classed as functional. The conditions noted are these: Homo sapiens.
Assay [3] relates to BJ. Put plainly: BJ-TERT-LT-ST fibroblast viability loss – cell-based, RAS-independent, luminescence, dose response (AID 1935).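 Also: BJ fibroblasts immortalized with TERT plus LT and ST oncogenes.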 The settings on record: Homo sapiens. Format: functional.
Assay [4] has as its target T1, Heat shock factor protein 1 (Mus musculus, UniProt P38532).
T1 sequence (P38532 whole entry): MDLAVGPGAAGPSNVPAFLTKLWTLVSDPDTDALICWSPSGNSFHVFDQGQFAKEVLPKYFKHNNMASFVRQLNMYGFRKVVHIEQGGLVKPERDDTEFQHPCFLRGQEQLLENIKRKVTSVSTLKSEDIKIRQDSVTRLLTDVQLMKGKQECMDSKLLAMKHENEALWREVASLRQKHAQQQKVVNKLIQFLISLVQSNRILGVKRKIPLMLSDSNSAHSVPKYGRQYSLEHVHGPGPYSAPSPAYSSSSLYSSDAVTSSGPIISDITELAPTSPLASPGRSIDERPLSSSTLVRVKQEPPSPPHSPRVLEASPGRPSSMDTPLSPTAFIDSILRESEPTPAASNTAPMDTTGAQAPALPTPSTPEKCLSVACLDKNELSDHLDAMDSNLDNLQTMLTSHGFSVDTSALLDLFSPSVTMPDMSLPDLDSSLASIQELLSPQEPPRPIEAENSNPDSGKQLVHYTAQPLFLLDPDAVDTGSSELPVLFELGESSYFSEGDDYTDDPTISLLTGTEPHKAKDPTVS
Put plainly: decrease of HSF1-responsive luciferase luminescence – cell-based, NIH3T3, dose retest, confirmation (AID 2382).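 Also: NIH3T3 fibroblasts with HSF1-driven luciferase reporter stressed by proteasome inhibitor MG132; luminescence from HSF1-driven luciferase expression after 8 hours of MG132 stress.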 Format: functional.

For assay [5], the system named is BJ. Put plainly: growth inhibition of engineered Ras-driven BJ cells – cell-based, alamar blue fluorescence, cherrypicked samples, dose response (AID 2631).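 Also: confirmatory dose-response assay in RAS-dependent BJ fibroblasts engineered with TERT, LT and ST, with cytotoxicity read by fluorescence.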 The settings on record: Homo sapiens. The assay is classed as functional. A general note: Resazurin is reduced to fluorescent resorufin, in cell work by metabolically active cells.
Assay [6] has as its system BJ. Put plainly: BJ-TERT fibroblast viability loss – cell-based, RAS-independent, luminescence, dose response (AID 1933). Format: functional. The settings on record: Homo sapiens.
In assay [7] the target is Beta-2 adrenergic receptor (Homo sapiens, UniProt P07550). Put plainly: ADRB2 activation measured by internalization – cell-based, FAP fluorogen, flow cytometry, cherry pick 1, dose response (AID 588763). The assay is classed as functional. Background: A flow cytometer gives signals particle by particle.
Chain of Beta-2 adrenergic receptor (P07550 whole entry): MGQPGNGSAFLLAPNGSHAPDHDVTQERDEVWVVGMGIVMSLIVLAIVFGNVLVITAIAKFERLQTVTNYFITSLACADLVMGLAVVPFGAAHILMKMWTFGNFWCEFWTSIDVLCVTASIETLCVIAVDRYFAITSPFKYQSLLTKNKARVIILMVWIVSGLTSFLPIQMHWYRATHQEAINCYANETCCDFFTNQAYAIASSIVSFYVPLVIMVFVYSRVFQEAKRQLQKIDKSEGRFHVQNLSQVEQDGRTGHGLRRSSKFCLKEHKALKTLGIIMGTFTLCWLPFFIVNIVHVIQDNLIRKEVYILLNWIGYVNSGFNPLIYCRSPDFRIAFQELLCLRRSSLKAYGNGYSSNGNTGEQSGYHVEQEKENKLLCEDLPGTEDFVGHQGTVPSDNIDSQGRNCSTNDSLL
Assay [8] concerns the target Protein Wnt-3a (Mus musculus, UniProt P27467). Put plainly: antagonism of Wnt3a pathway luciferase reporter – Wnt-LIGHT cells, luminescence, selectivity assay for Gli-SUFU antagonist project, dose response (AID 651570).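 Also: Wnt-LIGHT reporter cells stimulated with conditioned medium from Wnt3a-producing cells.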 The assay is classed as functional. The conditions noted are these: read-out: IC50_Mean. (In a reporter assay the amount or activity of a reporter protein is the signal.)

Assay [9] concerns the target Protein disulfide-isomerase (Homo sapiens, UniProt P07237). Put plainly: inhibition of PDI-driven insulin aggregation – biochemical, turbidity, absorbance, cherry-picked samples, dose response (AID 602350). Format: functional.
The target of assay [10] is T2, Probable nicotinate-nucleotide adenylyltransferase (Staphylococcus aureus (strain N315), UniProt P65502). The assay is classed as functional, Staphylococcus aureus subsp. aureus N315.
T2 sequence (P65502 whole entry): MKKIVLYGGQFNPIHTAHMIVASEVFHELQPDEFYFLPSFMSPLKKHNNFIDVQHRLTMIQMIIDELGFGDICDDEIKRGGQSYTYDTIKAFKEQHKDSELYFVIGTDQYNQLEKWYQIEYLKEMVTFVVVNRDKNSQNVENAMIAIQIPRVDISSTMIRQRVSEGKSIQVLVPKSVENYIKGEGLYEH
Assay [11] addresses T3, Small ubiquitin-related modifier 2 (Homo sapiens, UniProt P61956). Put plainly: disruption of SUMO2 interaction with SIM peptide – biochemical, fluorescence polarization, uHTS hits, selectivity assay for SUMO1 interaction inhibitor project, dose response (AID 624385). The assay is classed as functional. The settings on record: read-out: IC50_Mean.
Assay [12] deals with T4, Small ubiquitin-related modifier 1 (Homo sapiens, UniProt P63165). Put plainly: SUMO1 protein-protein binding blockers, potency – biochemical, FRET, dose response (AID 624383). The conditions noted are these: read-out: IC50_Mean. Format: functional.
T4 sequence (P63165 whole entry): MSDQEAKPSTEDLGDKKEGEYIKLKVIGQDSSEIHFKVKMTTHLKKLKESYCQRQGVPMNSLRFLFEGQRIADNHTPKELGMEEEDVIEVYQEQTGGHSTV
Assay [13] deals with T2, Probable nicotinate-nucleotide adenylyltransferase. Format: functional, Staphylococcus aureus subsp. aureus N315. The conditions noted are these: read-out: IC50_Mean.
The target in assay [14] is T3, Small ubiquitin-related modifier 2. Put plainly: SUMO2 binding disruption by SUMO1 hits – biochemical, FRET, human SUMO2, uHTS hits, selectivity assay for SUMO1 interaction inhibitor project, dose response (AID 624384). The assay is classed as functional. The conditions noted are these: read-out: IC50_Mean.
In assay [15] the target is T4, Small ubiquitin-related modifier 1. Put plainly: SUMO1 protein interaction blockers, potency – biochemical, fluorescence polarization, uHTS hits, dose response (AID 624382). The conditions noted are these: read-out: IC50_Mean. Format: functional.
The target in assay [16] is DNA (cytosine-5)-methyltransferase 1 (Homo sapiens, UniProt P26358). Put plainly: inhibition of DNA methylation by DNMT1 – biochemical, fluorescent molecular beacon, confirmation (AID 602386). Format: functional.
Chain of DNA (cytosine-5)-methyltransferase 1 (P26358 whole entry): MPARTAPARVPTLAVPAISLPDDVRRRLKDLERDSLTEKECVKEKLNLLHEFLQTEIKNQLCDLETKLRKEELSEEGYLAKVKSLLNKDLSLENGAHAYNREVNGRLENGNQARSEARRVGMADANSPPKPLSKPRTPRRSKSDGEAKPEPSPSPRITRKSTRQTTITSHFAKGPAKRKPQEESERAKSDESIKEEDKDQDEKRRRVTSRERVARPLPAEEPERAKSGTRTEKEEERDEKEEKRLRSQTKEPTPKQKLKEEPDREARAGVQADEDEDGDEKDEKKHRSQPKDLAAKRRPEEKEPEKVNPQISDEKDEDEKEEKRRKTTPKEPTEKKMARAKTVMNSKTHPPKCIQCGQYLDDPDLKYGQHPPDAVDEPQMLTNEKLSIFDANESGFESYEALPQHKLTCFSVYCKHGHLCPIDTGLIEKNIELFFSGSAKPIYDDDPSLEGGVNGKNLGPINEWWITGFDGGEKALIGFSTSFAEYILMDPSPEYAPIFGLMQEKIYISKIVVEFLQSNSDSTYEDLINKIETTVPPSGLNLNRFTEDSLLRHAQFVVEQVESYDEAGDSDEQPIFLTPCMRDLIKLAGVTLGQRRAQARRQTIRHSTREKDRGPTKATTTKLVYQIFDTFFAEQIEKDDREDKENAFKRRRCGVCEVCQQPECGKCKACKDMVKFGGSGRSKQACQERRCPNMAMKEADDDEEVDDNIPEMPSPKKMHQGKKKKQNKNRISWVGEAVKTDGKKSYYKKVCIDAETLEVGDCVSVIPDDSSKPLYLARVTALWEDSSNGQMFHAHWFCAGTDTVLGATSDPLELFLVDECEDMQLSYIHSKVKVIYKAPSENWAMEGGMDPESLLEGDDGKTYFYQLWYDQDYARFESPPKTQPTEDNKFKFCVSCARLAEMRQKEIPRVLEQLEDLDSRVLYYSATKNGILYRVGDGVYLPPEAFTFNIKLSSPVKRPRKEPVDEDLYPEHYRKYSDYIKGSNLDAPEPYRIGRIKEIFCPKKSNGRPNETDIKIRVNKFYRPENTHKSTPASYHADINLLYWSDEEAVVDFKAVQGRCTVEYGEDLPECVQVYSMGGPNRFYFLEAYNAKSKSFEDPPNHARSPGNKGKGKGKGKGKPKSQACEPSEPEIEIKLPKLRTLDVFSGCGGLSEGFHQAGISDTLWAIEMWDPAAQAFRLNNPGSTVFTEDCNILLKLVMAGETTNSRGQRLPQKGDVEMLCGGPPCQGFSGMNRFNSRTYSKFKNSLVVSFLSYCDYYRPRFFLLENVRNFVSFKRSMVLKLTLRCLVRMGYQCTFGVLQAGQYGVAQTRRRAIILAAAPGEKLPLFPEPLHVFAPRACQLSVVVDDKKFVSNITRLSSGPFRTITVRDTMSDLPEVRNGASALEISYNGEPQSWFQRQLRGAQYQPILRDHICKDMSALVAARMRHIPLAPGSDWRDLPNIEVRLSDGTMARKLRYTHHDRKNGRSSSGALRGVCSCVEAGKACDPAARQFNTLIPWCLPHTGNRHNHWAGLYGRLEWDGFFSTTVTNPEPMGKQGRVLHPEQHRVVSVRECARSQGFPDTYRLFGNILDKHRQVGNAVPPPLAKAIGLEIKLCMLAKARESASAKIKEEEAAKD
The target in assay [17] is Intestinal-type alkaline phosphatase (Homo sapiens, UniProt P09923). Put plainly: inhibition of human intestinal alkaline phosphatase – biochemical, dose response (AID 488876). Format: functional.
Chain of Intestinal-type alkaline phosphatase (Homo sapiens, UniProt P09923) (P09923 whole entry): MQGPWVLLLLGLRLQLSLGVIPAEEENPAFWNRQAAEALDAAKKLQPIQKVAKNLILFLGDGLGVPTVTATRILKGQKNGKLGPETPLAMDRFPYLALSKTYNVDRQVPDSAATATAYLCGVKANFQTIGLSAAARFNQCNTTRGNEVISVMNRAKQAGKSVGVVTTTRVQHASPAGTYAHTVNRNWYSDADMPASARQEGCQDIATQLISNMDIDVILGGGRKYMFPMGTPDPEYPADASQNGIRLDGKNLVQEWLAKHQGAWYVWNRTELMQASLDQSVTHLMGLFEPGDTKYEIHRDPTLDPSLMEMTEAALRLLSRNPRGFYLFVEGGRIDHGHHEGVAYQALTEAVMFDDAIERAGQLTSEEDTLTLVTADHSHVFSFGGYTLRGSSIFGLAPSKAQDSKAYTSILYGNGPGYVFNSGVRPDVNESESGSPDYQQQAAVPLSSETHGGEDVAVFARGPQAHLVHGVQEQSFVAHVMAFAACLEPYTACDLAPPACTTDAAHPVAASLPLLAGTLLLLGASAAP
In assay [18] the target is T5, Alkaline phosphatase, tissue-nonspecific isozyme (Homo sapiens, UniProt P05186).
T5 sequence (P05186 whole entry): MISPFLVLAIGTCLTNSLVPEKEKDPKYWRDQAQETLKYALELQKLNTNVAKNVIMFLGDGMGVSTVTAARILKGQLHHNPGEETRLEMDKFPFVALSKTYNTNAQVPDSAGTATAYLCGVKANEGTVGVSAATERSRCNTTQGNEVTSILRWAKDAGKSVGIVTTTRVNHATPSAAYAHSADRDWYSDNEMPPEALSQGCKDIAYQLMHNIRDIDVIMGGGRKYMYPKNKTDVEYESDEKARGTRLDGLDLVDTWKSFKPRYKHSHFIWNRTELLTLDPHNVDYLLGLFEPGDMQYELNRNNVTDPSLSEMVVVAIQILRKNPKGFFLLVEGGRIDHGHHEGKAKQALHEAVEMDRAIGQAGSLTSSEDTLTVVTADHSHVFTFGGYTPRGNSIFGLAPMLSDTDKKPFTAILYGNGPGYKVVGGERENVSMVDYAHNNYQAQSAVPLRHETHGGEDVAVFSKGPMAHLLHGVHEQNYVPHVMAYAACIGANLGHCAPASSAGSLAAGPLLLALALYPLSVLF
Put plainly: TNAP enzyme inhibition by screening hits, dose response, selectivity assay for mouse IAP inhibitor project, biochemical, human TNAP, uHTS hits (AID 488906). The assay is classed as functional.

Assay [19] has as its target Intestinal-type alkaline phosphatase (Mus musculus, UniProt P24822). Put plainly: PubChem AID 488785. The assay is classed as functional.
Assay [20] has as its target T1, Heat shock factor protein 1. Put plainly: enhancement of HSF1-driven luciferase signal – cell-based, NIH3T3, luminescence, dose retest, confirmation (AID 435004).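 Also: stress induced by proteasome inhibitor MG132 added 30 min after compound; luciferase reporter driven by HSF1 response element in NIH3T3 cells; actives raise luminescence as potentiators of the MG132 stress response.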 Format: functional.
A short description of assay [21]: Fluorescence-based cell-based high throughput dose response assay for inhibitors of the interaction of nucleotide-binding oligomerization domain containing 2 (NOD2) and the receptor-interacting serine-threonine kinase 2 (RIPK2). The assay is classed as functional, Homo sapiens.
Assay [22] in a line: reduced cellular PGC1a acetyl-lysine signal – cell-based, cherry-picked samples, dose response (AID 720514).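 Also: potency may reflect raised or lowered acetylation signal.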 Format: functional.
Assay [23] in a line: fluconazole-exposed Candida albicans growth modulators – fluorescence, retest, confirmation (AID 2467). The assay is classed as functional, cell-based.
Assay [24] in a line: microbe, parasite or virus in culture. Format: functional. The conditions noted are these: Mycobacterium tuberculosis.
Assay [25] concerns the target T6, Ubiquitin-conjugating enzyme E2 N (Homo sapiens, UniProt P61088).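 Also: Dose-response confirmation in a TR-FRET assay detecting UBC13-driven polyubiquitin chain formation, inhibition measured.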
T6 sequence (P61088 whole entry): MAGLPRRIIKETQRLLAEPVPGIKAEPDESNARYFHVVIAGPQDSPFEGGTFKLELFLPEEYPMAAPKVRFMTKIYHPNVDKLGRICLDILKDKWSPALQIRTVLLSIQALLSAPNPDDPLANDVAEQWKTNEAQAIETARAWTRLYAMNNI
Format: functional.

Assay [26] in a line: Luminescence Cell-Based Dose Response HTS to Identify Inhibitors of 5'UTR Stem-Loop Driven Prion Protein mRNA Translation in H4 Neuroglioblastoma Cells. [Related pubchem assays: 1827 (Project Summary), 1813 (Primary HTS)]. Format: functional.
The nature of assay [27]: luciferase reporter signal suppression in cells – H4 neuroglioma cells, luminescence, dose response (AID 1990). The assay is classed as functional, cell-based.
Assay [28] in a line: NIH-3T3 fibroblast cytotoxicity, dose response, cytotoxicity control, cell-based, fluorescence, Alamar Blue, secondary assay (AID 2327).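 Also: NIH-3T3 mouse fibroblasts cultured with fluconazole at 8 µg/mL.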 Format: functional.
Assay [29] relates to INS1. Put plainly: INS-1E survival protection against cytokine death – cell-based, luminescence, retest, dose response (AID 449756).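 Also: cell death triggered by IL-1 beta plus TNF-alpha plus IFN-gamma mixture; protective hits raise ATP signal compared with cytokine alone wells.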 Format: functional. The conditions noted are these: Rattus norvegicus.
Assay [30] in a line: alpha-synuclein stem-loop luciferase translation blockers – H4 neuroglioma cells, luminescence, confirmation (AID 1988). The assay is classed as functional, cell-based.
Assay [31] has as its system Vero. Put plainly: viability of Vero cells under compound – cytotoxicity control for flavivirus capping enzyme inhibitors (AID 588742). The assay is classed as functional. The settings on record: Chlorocebus sabaeus.
Assay [32] concerns the target Heat shock protein HSP 90-alpha (Homo sapiens, UniProt P07900). Format: functional, organism-based.
Assay [33] deals with T7, Polyadenylate-binding protein 1 (Homo sapiens, UniProt P11940). Put plainly: MLLE domain peptide-binding blockers, IC50 – biochemical, fluorescence polarization, FITC-PAM2 peptide, dose response (AID 602259). Format: functional. The settings on record: read-out: IC50_Mean.
T7 sequence (P11940 whole entry, the tested form may be a part): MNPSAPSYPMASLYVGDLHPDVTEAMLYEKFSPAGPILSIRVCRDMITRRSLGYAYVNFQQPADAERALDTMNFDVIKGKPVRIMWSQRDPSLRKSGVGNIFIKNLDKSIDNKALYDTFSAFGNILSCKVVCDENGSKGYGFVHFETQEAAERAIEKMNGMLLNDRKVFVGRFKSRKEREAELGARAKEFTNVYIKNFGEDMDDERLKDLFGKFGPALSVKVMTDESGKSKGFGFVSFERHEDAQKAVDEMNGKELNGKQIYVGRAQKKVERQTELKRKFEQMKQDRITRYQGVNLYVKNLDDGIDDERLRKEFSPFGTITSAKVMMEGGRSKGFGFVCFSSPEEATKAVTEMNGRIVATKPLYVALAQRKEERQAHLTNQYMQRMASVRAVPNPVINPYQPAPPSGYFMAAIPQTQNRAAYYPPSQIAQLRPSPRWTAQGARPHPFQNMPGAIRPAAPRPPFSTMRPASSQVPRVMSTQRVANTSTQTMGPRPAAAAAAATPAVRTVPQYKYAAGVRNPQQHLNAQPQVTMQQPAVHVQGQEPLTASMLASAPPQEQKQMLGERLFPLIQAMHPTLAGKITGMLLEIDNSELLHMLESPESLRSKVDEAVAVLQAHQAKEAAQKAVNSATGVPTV
Assay [34] concerns the target Dual specificity tyrosine-phosphorylation-regulated kinase 1A (Rattus norvegicus, UniProt Q63470). Format: biochemical, Homo sapiens.
Assay [35] has as its target T7, Polyadenylate-binding protein 1. Put plainly: MLLE binding blockers, Cy5 peptide tracer – biochemical, fluorescence polarization, Cy5-PAM2 peptide, secondary, miRNA deadenylation inhibitor project, dose response (AID 602260). The assay is classed as functional. The conditions noted are these: read-out: IC50_Mean.

Chain of Protein disulfide-isomerase (P07237 whole entry): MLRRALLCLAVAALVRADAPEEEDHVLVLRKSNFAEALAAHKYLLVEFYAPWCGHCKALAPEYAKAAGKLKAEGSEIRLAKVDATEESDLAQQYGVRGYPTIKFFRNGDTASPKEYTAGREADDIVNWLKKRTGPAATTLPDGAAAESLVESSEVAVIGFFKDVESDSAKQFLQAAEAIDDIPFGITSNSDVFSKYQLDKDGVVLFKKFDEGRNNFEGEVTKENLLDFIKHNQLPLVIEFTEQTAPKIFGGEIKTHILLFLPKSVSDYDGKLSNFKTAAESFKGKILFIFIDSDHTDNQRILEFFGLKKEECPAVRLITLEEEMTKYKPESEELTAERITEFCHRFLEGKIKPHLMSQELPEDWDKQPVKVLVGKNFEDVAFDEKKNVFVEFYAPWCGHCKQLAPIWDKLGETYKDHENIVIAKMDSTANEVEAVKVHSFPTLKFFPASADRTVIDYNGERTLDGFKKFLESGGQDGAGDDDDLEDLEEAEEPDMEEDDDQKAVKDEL
T3 sequence (P61956 whole entry): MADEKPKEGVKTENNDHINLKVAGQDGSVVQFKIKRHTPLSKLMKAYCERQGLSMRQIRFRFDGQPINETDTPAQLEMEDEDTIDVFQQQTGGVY
Chain of Protein Wnt-3a (P27467 whole entry): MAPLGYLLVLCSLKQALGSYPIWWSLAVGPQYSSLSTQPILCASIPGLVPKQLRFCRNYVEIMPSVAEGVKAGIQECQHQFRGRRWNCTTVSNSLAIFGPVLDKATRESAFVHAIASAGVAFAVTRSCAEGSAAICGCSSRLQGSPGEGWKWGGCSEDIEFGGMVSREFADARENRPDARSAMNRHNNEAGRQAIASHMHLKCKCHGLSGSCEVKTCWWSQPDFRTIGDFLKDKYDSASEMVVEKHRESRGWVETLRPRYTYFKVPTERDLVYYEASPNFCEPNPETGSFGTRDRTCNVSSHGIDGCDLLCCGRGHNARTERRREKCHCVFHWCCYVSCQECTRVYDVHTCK
Chain of Intestinal-type alkaline phosphatase (Mus musculus, UniProt P24822) (P24822 whole entry): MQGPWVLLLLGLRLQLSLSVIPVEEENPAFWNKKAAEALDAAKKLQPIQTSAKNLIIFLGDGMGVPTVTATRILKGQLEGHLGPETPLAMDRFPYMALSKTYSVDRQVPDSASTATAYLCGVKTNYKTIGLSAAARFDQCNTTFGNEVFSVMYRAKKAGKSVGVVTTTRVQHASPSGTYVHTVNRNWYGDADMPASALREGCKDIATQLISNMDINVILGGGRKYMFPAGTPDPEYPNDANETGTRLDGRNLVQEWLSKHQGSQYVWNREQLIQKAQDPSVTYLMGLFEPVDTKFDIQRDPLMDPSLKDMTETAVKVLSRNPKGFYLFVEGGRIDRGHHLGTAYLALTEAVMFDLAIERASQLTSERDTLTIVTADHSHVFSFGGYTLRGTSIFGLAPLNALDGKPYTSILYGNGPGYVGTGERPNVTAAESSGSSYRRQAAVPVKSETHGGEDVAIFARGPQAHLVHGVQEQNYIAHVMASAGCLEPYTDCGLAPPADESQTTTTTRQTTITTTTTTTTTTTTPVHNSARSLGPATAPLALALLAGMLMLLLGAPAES

In the case of `Nc1nc(CCl)nc(Nc2cccc3ccccc23)n1`, the EC50 in [1] was 2.73 µM (inconclusive); in [2], 1.98 µM (active); in assay [3], 9.87 µM (inconclusive); in assay [4] it was 3.74 µM (active); in assay [5], 6.34 µM (active); in assay [6], 0.288 µM (active).

For `CC(=O)Nc1ccc(-c2nnc(SCc3ccc(C)cc3)n2C)cc1`, the EC50 in [7] was 3.6 µM (active).

`O=C(C[C@H]1C/C=C\C[C@@H](NC(=O)OCC2c3ccccc3-c3ccccc32)C(=O)O[C@@H](c2ccccc2)CNC1=O)N[C@H](CO)Cc1ccccc1`: the IC50 in [8] is 20.8 µM (inactive).

For the molecule `O=C(O)C1C(c2ccccc2)C(C(=O)Oc2ccc(O)cc2)C1c1ccccc1` (stereo not drawn), the AC50 in [9] is 14.6 µM (active).

Consider `COc1ccc(Br)cc1/C=N/Nc1ccc(S(=O)(=O)Nc2ccccc2C(=O)O)cc1[N+](=O)[O-]`, for which the IC50 in assay [10] was 3.24 µM (active); in assay [11] it was 2.52 µM (active); in [12] it was 50.6 µM (inactive); in assay [13] it was 19.9 µM (active); in assay [14] it was 45.4 µM (inactive); in assay [15], 4.47 µM (active). The IC50 in [16] is 3.39 µM (active).

In the case of `O=C(c1c(O)cc(O)cc1O)C1c2c(cc(O)c3c2O[C@H](c2ccc(O)cc2)[C@@H](O)C3)OC1c1ccc(O)cc1` (stereo partly drawn) [DIHYDRODAPHNODORIN B], the IC50 in assay [17] is 18.3 µM (active); in assay [18] it was 19.7 µM (active); in assay [19], 7.21 µM (active). For the same molecule, the AC50 in assay [9] was 19.5 µM (active).

As for `O=C(CSc1nnc(-c2ccncc2)n1Cc1ccco1)N1c2ccccc2Sc2ccc(Cl)cc21`, the EC50 in assay [7] was 0.343 µM (active); in assay [20], 27.3 µM (active).

For the molecule `CC1=CC2OC3CC4OC(=O)C=CC=CC(=O)OCCC(C)C(O)C(=O)OCC2(CC1O)C4(C)C31CO1` (stereo not drawn), the IC50 in assay [21] is 49.7 µM (inactive).

For the molecule `CNC[C@@H](Cc1ccccc1)NC[C@@H](CC1CCCCC1)NCCCc1ccccc1`, the EC50 is 5.13 µM (inconclusive) in assay [1]; > 38 µM (not active) in assay [23]; 5.08 µM (active) in assay [2]; 5.72 µM (inconclusive) in assay [3]; > 120 µM (not active) in assay [26]; 7.68 µM (active) in assay [27]. Further, the EC50 is 4.94 µM (inconclusive) in assay [28], 0.532 µM (inconclusive) in assay [5], 5 µM (active) in assay [6] and 4.29 µM (active) in assay [30]. Besides, the AC50 in assay [22] is 5.06 µM (active); in [29] it was 6.49 µM (active). For the same molecule, the CC50 in assay [24] is 5.76 µM (active). The IC50 in assay [25] is > 20 µM (inactive).

On to `O=C1C[C@@H](c2ccc(O[C@@H]3O[C@H](CO)[C@@H](O)[C@H](O)[C@H]3O)cc2)Oc2cc(O)ccc21` [LIQUIRITIN], for which the AC50 in [9] was 15.6 µM (active).

On to `COc1ccc2c3c(ccc2c1)C(O)=C(C=O)CC3`, for which the CC50 in [31] was > 40 µM (active). The AC50 is 2.94 µM (active) in [32] and 0.633 µM (active) in assay [34]. Besides, the IC50 in assay [33] and in assay [35] was > 66 µM (inactive) in each case.
